In patent publication US11642344B2, “Cholesteryl ester transfer protein (CETP) inhibitor and pharmaceutical compositions comprising said inhibitor for use in the treatment or prevention of cardiovascular diseases” (NewAmsterdam Pharma B.V., priority 2014, dated 2023):
Read-outs that look alike come from different tables or passages of the source. Blank lines part the entries; values can stand above or below the compound they belong to.

Experiments:
CETP [1] = experiment: Ex vivo serum CETP activity after oral administration to hamsters; design: species or system Syrian Golden hamsters; details: 3 mg/kg oral, suspension in 0.5% CMC, serum 3 hours after administration
Description: Syrian Golden hamsters were used for the experiment after 1-week acclimatization. After an overnight fast, animals were orally given the compound suspension in 0.5% sodium carboxymethylcellulose in a volume of 10 mL/kg. Under deep anesthesia with ether, blood was collected from the abdominal aorta 3 hours after the administration. For preparation of serum, the collected blood was transferred to a plastic tube containing a clot activator, left still for 15 minutes at room temperature and centrifuged. Serum CETP activities were determined immediately.
Ninety-five μL serum were added to 5 μL of […] sodium phosphate buffered saline (pH 7.0) containing 1.5 mM 5,5′-dithio-bis(2-nitrobenzoic acid) in two 96-well V-bottom plates. One plate was incubated at 4° C. and the other was incubated at 37° C. After 18 hours of incubation, each sample was mixed with 100 μL of reagent for precipitation of apolipoprotein B-containing lipoproteins (phosphotungstate/MgCl2 reagent, Wako pure chemical), left still for 10 minutes at room temperature and centrifuged. Total cholesterol (TC) and free cholesterol (FC) in supernatant were measured using commercial kits (Cholesterol E-test wako, and Free Cholesterol E-test wako; Wako pure chemical). Cholesteryl ester (CE) was calculated by subtracting FC from TC. CETP activity was determined by the following formula: CETP activity=[CETP transfer]*/[CE value in 4° C. incubation sample] *CETP transfer=[CE value in 4° C. incubation sample]−[CE value in 37° C. incubation sample] (c) Results

CETP [2] = target: T1, CETP (Homo sapiens, UniProt P11597); experiment: In vitro CETP assay: 3H-labeled CE transfer from HDL to VLDL/LDL in human plasma; format: biochemical; details: 24 h pre-incubation at 37° C.
T1 construct: from tissue; host or cells: plasma of Caucasian male subjects dosed with Compound A or placebo
T1 sequence (P11597 18-493): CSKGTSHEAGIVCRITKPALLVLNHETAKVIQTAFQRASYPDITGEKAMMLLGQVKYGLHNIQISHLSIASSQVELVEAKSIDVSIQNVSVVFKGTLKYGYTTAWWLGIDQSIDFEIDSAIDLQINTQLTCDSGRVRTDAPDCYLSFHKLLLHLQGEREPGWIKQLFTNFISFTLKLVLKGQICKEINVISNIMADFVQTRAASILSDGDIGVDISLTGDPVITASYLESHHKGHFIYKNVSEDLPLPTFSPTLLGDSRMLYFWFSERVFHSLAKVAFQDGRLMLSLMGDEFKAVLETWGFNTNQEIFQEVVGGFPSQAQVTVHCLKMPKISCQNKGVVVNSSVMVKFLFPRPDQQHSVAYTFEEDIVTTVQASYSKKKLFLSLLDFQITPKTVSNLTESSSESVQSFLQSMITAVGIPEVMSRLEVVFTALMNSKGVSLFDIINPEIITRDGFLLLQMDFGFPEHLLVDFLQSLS
Description: Human blood was obtained from healthy male volunteers using 0.1% EDTA as an anticoagulant, and centrifuged at 3,000 rpm for 15 minutes at 4° C. Human plasma was pooled, and then used for the preparation of ^3H-labeled HDL or stored at −80° C. for CETP assay until use. The ^3H-labeled HDL was prepared with human plasma as described by Glenn and Melton (Methods in enzymology. 263; 339-351, 1996). The specific gravity of plasma was measured by a hydrometer, and the density was adjusted to 1.125 g/mL by adding solid KBr. After centrifugation at 100,000 rpm for 4 hours at 12° C. (rotor: 100.4, Optima TLX, Beckman), d>1.125 g/mL fraction was dialyzed against 4 L of Tris-saline-EDTA buffer (TSE; 50 mmol/L Tris, 150 mmol/L NaCl, 2 mmol/L EDTA, pH7.4) for 18 hours at 4° C. [1,2-^3H(N)]-Cholesterol (37 MBq/mL) was added to the dialyzed plasma fraction at the amount of 2 μCi/mL. The tube was tightly sealed under N2 gas stream and incubated at 37° C. for 18 hours with gently stirring to allow esterification of radio-labeled cholesterol by endogenous LCAT. The incubated plasma fraction was adjusted to d=1.21 g/mL with solid KBr, and centrifuged at 100,000 rpm, 12° C. for 5 hours. ^3H-labeled HDL fraction was dialyzed against 2 L of TSE at 4° C. for 18 hours. The radioactivity of ^3H-labeled HDL was counted in a liquid scintillation counter. ^3H-labeled HDL was stored at 4° C. until use.
CETP activity was determined as the rate of ^3H-labeled CE transfer from donor HDL to acceptor VLDL/LDL. Human plasma (94 μL) was pre-incubated with compounds dissolved in DMSO (1 μL) 24 hours at 37° C., and then incubated for 4 hours at 4° C. or 37° C. with 5 μL of ^3H-labeled HDL. One hundred μL of phosphotungstate/MgCl2 reagent (Wako pure chemical) were added to precipitate apoB-containing lipoproteins. After centrifugation at 3,000 rpm for 10 minutes at room temperature, the radioactivity of the supernatant was counted in a liquid scintillation counter. […] The concentration achieving 50% inhibition of CETP activity (IC50) was estimated.

HDL-C, LDL-C = details: cited from earlier work
[3] = cited from earlier work; for mineralocorticoid activity: data from phase 2 studies; for off-target effects (in words): clinical trials
[4] = 500 mg once daily monotherapy in patients
[5] = 200 mg once daily, fasted healthy subjects

SMILES: CCOC(=O)N1c2ccc(C(F)(F)F)cc2C(N(Cc2cc(C(F)(F)F)cc(C(F)(F)F)c2)c2ncc(OCc3ccc(C(=O)O)cc3)cn2)CC1CC (stereo not drawn) [compound 1]
ex vivo (% inhibition) 3 mg/kg (CMC) (CETP [1]): 57.5% | IC50 (CETP [2]): 0.21 µM

SMILES: Cc1cc(C)c2c(c1)[C@@H](N(Cc1cc(C(F)(F)F)cc(C(F)(F)F)c1)c1nnn(C)n1)CCCN2C[C@H]1CC[C@H](C(=O)O)CC1 [Evacetrapib, evacetrapib]
decrease LDL-C (HDL-C, LDL-C; [4]): 36% | increase HDL-C (HDL-C, LDL-C; [4]): 129% | mineralocorticoid activity [3]: without mineralocorticoid activity

SMILES: CCOC(=O)N1c2ccc(C(F)(F)F)cc2[C@@H](N(Cc2cc(C(F)(F)F)cc(C(F)(F)F)c2)C(=O)OC)C[C@H]1CC [Torcetrapib, torcetrapib]
decrease LDL-C (HDL-C, LDL-C; dosed at 60 mg, phase 3): 25% | increase HDL-C (HDL-C, LDL-C; dosed at 60 mg, phase 3): 72% | off-target effects (in words) [3]: increased blood pressure, changes in electrolytes | cardiovascular events and death ([3]; in combination with atorvastatin, compared with atorvastatin alone): unexpected increase in cardiovascular events and death

SMILES: CCC(CC)CC1(C(=O)Nc2ccccc2SC(=O)C(C)C)CCCCC1 [Dalcetrapib, dalcetrapib]
effects on LDL-C concentrations (HDL-C, LDL-C; phase 2b clinical trials): minimal effects | increase HDL-C (HDL-C, LDL-C; phase 2b clinical trials): 30-40% | off-target effects (in words) [3]: did not appear to exhibit the off-target effects of torcetrapib

SMILES: CCOC(=O)N1c2ccc(C(F)(F)F)cc2[C@@H](N(Cc2cc(C(F)(F)F)cc(C(F)(F)F)c2)c2ncc(OCc3cccc(C(=O)O)c3)cn2)C[C@H]1CC [compound 2]
ex vivo (% inhibition) 3 mg/kg (CMC) (CETP [1]): 38.4% | IC50 (CETP [2]): 0.23 µM

SMILES: COc1cc(F)c(C(C)C)cc1-c1ccc(C(F)(F)F)cc1CN1C(=O)O[C@H](c2cc(C(F)(F)F)cc(C(F)(F)F)c2)[C@@H]1C [Anacetrapib, anacetrapib]
decrease LDL-C (HDL-C, LDL-C; 150 mg once daily, patients): 40% | increase HDL C (HDL-C, LDL-C; 150 mg once daily, patients): 139% | decrease LDL-C (HDL-C, LDL-C; [5]): 36% | increase HDL C (HDL-C, LDL-C; [5]): 97% | mineralocorticoid activity [3]: without mineralocorticoid activity

More lines, main results first:

IC50 (CETP [2]): 0.45 µM
SMILES: CCOC(=O)N1c2ccc(C(F)(F)F)cc2C(N(Cc2cc(C(F)(F)F)cc(C(F)(F)F)c2)c2ncc(OCC(=O)NCC(=O)O)cn2)CC1CC (stereo not drawn) [compound 3]
ex vivo (% inhibition) 3 mg/kg (CMC) (CETP [1]): 5.4%

IC50 (CETP [2]): 0.79 µM
SMILES: CCOC(=O)N1c2ccc(C(F)(F)F)cc2C(N(Cc2cc(C(F)(F)F)cc(C(F)(F)F)c2)c2ncc(OCC(=O)N(C)CC(=O)O)cn2)CC1CC (stereo not drawn) [compound 4]
ex vivo (% inhibition) 3 mg/kg (CMC) (CETP [1]): 8.6%

IC50 (CETP [2]): 1.7 µM
SMILES: CCOC(=O)N1c2ccc(C(F)(F)F)cc2C(N(Cc2cc(C(F)(F)F)cc(C(F)(F)F)c2)c2ncc(OCC(=O)N3CCCC3C(=O)O)cn2)CC1CC (stereo not drawn) [compound 5]
ex vivo (% inhibition) 3 mg/kg (CMC) (CETP [1]): 6.2%

IC50 (CETP [2]): 0.22 µM
SMILES: CCOC(=O)N1c2ccc(C(F)(F)F)cc2C(N(Cc2cc(C(F)(F)F)cc(C(F)(F)F)c2)c2ncc(S(=O)(=O)CCCC(=O)O)cn2)CC1CC (stereo not drawn) [compound 6]
ex vivo (% inhibition) 3 mg/kg (CMC) (CETP [1]): 13.9%
